Assay results: ChEMBL document CHEMBL2346657, “Synthesis of novel 2-amino-4-(5'-substituted 2'-phenyl-1H-indol-3'-yl)-6-aryl-4H-pyran-3-carbonitrile derivatives as antimicrobial and antioxidant agents” (2013)
Active and inactive are the calls of the source. The rule behind the calls is not given here.

Experiments:
Type in all cases: functional
[1] = system: Aspergillus flavus; assay: Antimicrobial activity against Aspergillus flavus MTCC 1973 at 500 ug/ml after 72 hrs by cup plate method; settings: MTCC 1973, 72 h, read-out: IZ
[2] = Antioxidant activity assessed as metal chelating activity by measuring inhibition of ferrozine-Fe2+ complex formation at 25 to 100 ug/ml
[3] = system: Aspergillus terreus; assay: Antimicrobial activity against Aspergillus terreus MTCC 1782 at 750 ug/ml after 72 hrs by cup plate method; settings: MTCC 1782, 72 h, read-out: IZ
[4] = system: Escherichia coli; assay: Antimicrobial activity against Escherichia coli MTCC 723 at 500 ug/ml after 24 hrs by cup plate method; settings: MTCC 723, 24 h, read-out: IZ
[5] = system: Pseudomonas aeruginosa; assay: Antimicrobial activity against Pseudomonas aeruginosa MTCC 1688 at 1000 ug/ml after 24 hrs by cup plate method; settings: MTCC 1688, 24 h, read-out: IZ
[6] = system: Aspergillus oryzae; assay: Antimicrobial activity against Aspergillus oryzae MTCC 3567 at 500 ug/ml after 72 hrs by cup plate method; settings: MTCC 3567, 72 h, read-out: IZ
[7] = system: Aspergillus terreus; assay: Antimicrobial activity against Aspergillus terreus MTCC 1782 at 1000 ug/ml after 72 hrs by cup plate method; settings: MTCC 1782, 72 h, read-out: IZ
[8] = system: Aspergillus oryzae; assay: Antimicrobial activity against Aspergillus oryzae MTCC 3567 at 750 ug/ml after 72 hrs by cup plate method; settings: MTCC 3567, 72 h, read-out: IZ
[9] = system: Pseudomonas aeruginosa; assay: Antimicrobial activity against Pseudomonas aeruginosa MTCC 1688 at 500 ug/ml after 24 hrs by cup plate method; settings: MTCC 1688, 24 h, read-out: IZ
[10] = system: Aspergillus niger; assay: Antimicrobial activity against Aspergillus niger MTCC 281 at 750 ug/ml after 72 hrs by cup plate method; settings: MTCC 281, 72 h, read-out: IZ
[11] = system: Escherichia coli; assay: Antimicrobial activity against Escherichia coli MTCC 723 at 750 ug/ml after 24 hrs by cup plate method; settings: MTCC 723, 24 h, read-out: IZ
[12] = system: Klebsiella pneumoniae; assay: Antimicrobial activity against Klebsiella pneumoniae NCTC 13368 at 1000 ug/ml after 24 hrs by cup plate method; settings: NCTC 13368, 24 h, read-out: IZ
[13] = system: Aspergillus terreus; assay: Antimicrobial activity against Aspergillus terreus MTCC 1782 at 500 ug/ml after 72 hrs by cup plate method; settings: MTCC 1782, 72 h, read-out: IZ
[14] = system: Staphylococcus aureus; assay: Antimicrobial activity against Staphylococcus aureus ATCC 29513 at 500 ug/ml after 24 hrs by cup plate method; settings: ATCC 29513, 24 h, read-out: IZ
[15] = system: Klebsiella pneumoniae; assay: Antimicrobial activity against Klebsiella pneumoniae NCTC 13368 at 750 ug/ml after 24 hrs by cup plate method; settings: NCTC 13368, 24 h, read-out: IZ
[16] = system: Staphylococcus aureus; assay: Antimicrobial activity against Staphylococcus aureus ATCC 29513 at 750 ug/ml after 24 hrs by cup plate method; settings: ATCC 29513, 24 h, read-out: IZ
[17] = system: Escherichia coli; assay: Antimicrobial activity against Escherichia coli MTCC 723 at 1000 ug/ml after 24 hrs by cup plate method; settings: MTCC 723, 24 h, read-out: IZ
[18] = system: Aspergillus oryzae; assay: Antimicrobial activity against Aspergillus oryzae MTCC 3567 at 1000 ug/ml after 72 hrs by cup plate method; settings: MTCC 3567, 72 h, read-out: IZ
[19] = system: Aspergillus flavus; assay: Antimicrobial activity against Aspergillus flavus MTCC 1973 at 750 ug/ml after 72 hrs by cup plate method; settings: MTCC 1973, 72 h, read-out: IZ
[20] = system: Klebsiella pneumoniae; assay: Antimicrobial activity against Klebsiella pneumoniae NCTC 13368 at 500 ug/ml after 24 hrs by cup plate method; settings: NCTC 13368, 24 h, read-out: IZ
[21] = system: Pseudomonas aeruginosa; assay: Antimicrobial activity against Pseudomonas aeruginosa MTCC 1688 at 750 ug/ml after 24 hrs by cup plate method; settings: MTCC 1688, 24 h, read-out: IZ
[22] = system: Staphylococcus aureus; assay: Antimicrobial activity against Staphylococcus aureus ATCC 29513 at 1000 ug/ml after 24 hrs by cup plate method; settings: ATCC 29513, 24 h, read-out: IZ
[23] = system: Aspergillus niger; assay: Antimicrobial activity against Aspergillus niger MTCC 281 at 500 ug/ml after 72 hrs by cup plate method; settings: MTCC 281, 72 h, read-out: IZ
[24] = system: Aspergillus flavus; assay: Antimicrobial activity against Aspergillus flavus MTCC 1973 at 1000 ug/ml after 72 hrs by cup plate method; settings: MTCC 1973, 72 h, read-out: IZ
[25] = system: Aspergillus niger; assay: Antimicrobial activity against Aspergillus niger MTCC 281 at 1000 ug/ml after 72 hrs by cup plate method; settings: MTCC 281, 72 h, read-out: IZ

| Structure (SMILES) | zone of inhibition at 500 µg/mL [1] | Activity [2] | zone of inhibition at 750 µg/mL [3] | zone of inhibition at 500 µg/mL [4] | zone of inhibition at 1000 µg/mL [5] | zone of inhibition at 500 µg/mL [6] | zone of inhibition at 1000 µg/mL [7] | zone of inhibition at 750 µg/mL [8] | zone of inhibition at 500 µg/mL [9] | zone of inhibition at 750 µg/mL [10] | zone of inhibition at 750 µg/mL [11] | zone of inhibition at 1000 µg/mL [12] | zone of inhibition at 500 µg/mL [13] | zone of inhibition at 500 µg/mL [14] | zone of inhibition at 750 µg/mL [15] | zone of inhibition at 750 µg/mL [16] | zone of inhibition at 1000 µg/mL [17] | zone of inhibition at 1000 µg/mL [18] | zone of inhibition at 750 µg/mL [19] | zone of inhibition at 500 µg/mL [20] | also measured |
| --- | --- | --- | --- | --- | --- | --- | --- | --- | --- | --- | --- | --- | --- | --- | --- | --- | --- | --- | --- | --- | --- |
| N#CC1=C(N)OC(c2ccccc2)=CC1c1c(-c2ccccc2)[nH]c2ccc(Cl)cc12 (stereo not given) | 3 mm | Active | 8 mm | 10 mm | 13 mm | 8 mm | 8 mm | 3 mm | 12 mm | 9 mm | 10 mm | 10 mm | 9 mm | 10 mm | 10 mm | 9 mm | 10 mm | 3 mm | 3 mm | 10 mm | zone of inhibition at 750 µg/mL [21]: 12 mm; zone of inhibition at 1000 µg/mL [22]: 9 mm; zone of inhibition at 500 µg/mL [23]: 8 mm; zone of inhibition at 1000 µg/mL [24]: 3 mm; zone of inhibition at 1000 µg/mL [25]: 10 mm |
| Cc1ccc2[nH]c(-c3ccccc3)c(C3C=C(c4ccccc4)Oc4[nH]c(=S)nc(N)c43)c2c1 (stereo not given) | 9 mm | Active | 8 mm | 8 mm | 8 mm | 3 mm | 8 mm | 3 mm | 9 mm | 3 mm | 8 mm | 4 mm | 9 mm | 10 mm | 4 mm | 9 mm | 8 mm | 3 mm | 6 mm | 5 mm | zone of inhibition at 750 µg/mL [21]: 8 mm; zone of inhibition at 1000 µg/mL [22]: 9 mm; zone of inhibition at 500 µg/mL [23]: 4 mm; zone of inhibition at 1000 µg/mL [24]: 5 mm; zone of inhibition at 1000 µg/mL [25]: 8 mm |
| Cc1ccc(C2=CC(c3c(-c4ccccc4)[nH]c4ccc(Cl)cc34)C(C#N)=C(N)O2)cc1 (stereo not given) | 5 mm | Active | 3 mm | 10 mm | 3 mm | 8 mm | 3 mm | 8 mm | 6 mm | 3 mm | 10 mm | 10 mm | 5 mm | 8 mm | 10 mm | 5 mm | 10 mm | 2 mm | 5 mm | 10 mm | zone of inhibition at 750 µg/mL [21]: 6 mm; zone of inhibition at 1000 µg/mL [22]: 6 mm; zone of inhibition at 500 µg/mL [23]: 4 mm; zone of inhibition at 1000 µg/mL [24]: 5 mm; zone of inhibition at 1000 µg/mL [25]: 3 mm |
| Nc1n[nH]c2c1C(c1c(-c3ccccc3)[nH]c3ccc(Cl)cc13)C=C(c1ccccc1)O2 (stereo not given) | 12 mm | Active | 3 mm | 7 mm | 13 mm | 12 mm | 3 mm | 12 mm | 12 mm | 5 mm | 7 mm | 5 mm | 2 mm | 10 mm | 5 mm | 8 mm | 9 mm | 12 mm | 12 mm | 6 mm | zone of inhibition at 750 µg/mL [21]: 12 mm; zone of inhibition at 1000 µg/mL [22]: 8 mm; zone of inhibition at 500 µg/mL [23]: 6 mm; zone of inhibition at 1000 µg/mL [24]: 9 mm; zone of inhibition at 1000 µg/mL [25]: 5 mm |
| Cc1ccc(C2=CC(c3c(-c4ccccc4)[nH]c4ccc(Cl)cc34)c3c(N)nc(=O)[nH]c3O2)cc1 (stereo not given) | 12 mm | Active | 8 mm | 8 mm | 8 mm | 12 mm | 8 mm | 13 mm | 10 mm | 10 mm | 8 mm | 8 mm | 8 mm | 0 mm | 8 mm | 0 mm | 10 mm | 13 mm | 12 mm | 8 mm | zone of inhibition at 750 µg/mL [21]: 9 mm; zone of inhibition at 1000 µg/mL [22]: 0 mm; zone of inhibition at 500 µg/mL [23]: 10 mm; zone of inhibition at 1000 µg/mL [24]: 13 mm; zone of inhibition at 1000 µg/mL [25]: 10 mm |
| Cc1ccc(C2=CC(c3c(-c4ccccc4)[nH]c4ccc(C)cc34)c3c(N)nc(=O)[nH]c3O2)cc1 (stereo not given) | 2 mm | Active | 9 mm | 13 mm | 10 mm | 0 mm | 9 mm | 0 mm | 10 mm | 10 mm | 13 mm | 10 mm | 9 mm | 8 mm | 10 mm | 5 mm | 14 mm | 0 mm | 2 mm | 10 mm | zone of inhibition at 750 µg/mL [21]: 10 mm; zone of inhibition at 1000 µg/mL [22]: 2 mm; zone of inhibition at 500 µg/mL [23]: 10 mm; zone of inhibition at 1000 µg/mL [24]: 2 mm; zone of inhibition at 1000 µg/mL [25]: 10 mm |
